Measured values reported in PubChem BioAssay (NCI).
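Where inhibition never reached the appropriate level, the endpoint shown equals the highest concentration tested. Otherwise, values were interpolated linearly from a five-concentration, 48-hour dose response in 96-well plates. GI50 is the concentration that inhibits growth by half. TGI denotes the concentration required for complete inhibition of growth.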

Tests used:
Assay in all cases: growth of human tumour cells (NCI), 48 h
TK-10 renal = test system: TK-10 renal
A498 renal = test system: A498 renal
EKVX NSCLC = test system: EKVX NSCLC
OVCAR-5 ovarian = test system: OVCAR-5 ovarian
SK-MEL-2 melanoma = test system: SK-MEL-2 melanoma
SR leukemia = test system: SR leukemia
SN12C renal = test system: SN12C renal
OVCAR-8 ovarian = test system: OVCAR-8 ovarian
SF-295 CNS = test system: SF-295 CNS
OVCAR-3 ovarian = test system: OVCAR-3 ovarian
M14 melanoma = test system: M14 melanoma
HT29 colon = test system: HT29 colon
MOLT-4 leukemia = test system: MOLT-4 leukemia
HL-60(TB) leukemia = test system: HL-60(TB) leukemia
NCI-H226 lung = test system: NCI-H226 lung
MDA-MB-231 breast = test system: MDA-MB-231 breast
UACC-62 melanoma = test system: UACC-62 melanoma
SF-268 CNS = test system: SF-268 CNS
K-562 leukemia = test system: K-562 leukemia
HCT-15 colon = test system: HCT-15 colon
MDA-MB-435 = test system: MDA-MB-435
NCI-H460 lung = test system: NCI-H460 lung
SF-539 CNS = test system: SF-539 CNS
U251 CNS = test system: U251 CNS
CAKI-1 renal = test system: CAKI-1 renal
A549 NSCLC = test system: A549 NSCLC
UO-31 renal = test system: UO-31 renal
MCF7 breast = test system: MCF7 breast
IGROV1 ovarian = test system: IGROV1 ovarian
LOX IMVI melanoma = test system: LOX IMVI melanoma
HCC-2998 colon = test system: HCC-2998 colon
SK-MEL-5 melanoma = test system: SK-MEL-5 melanoma
BT-549 breast = test system: BT-549 breast
PC-3 prostate = test system: PC-3 prostate
COLO 205 colon = test system: COLO 205 colon
HS 578T breast = test system: HS 578T breast
MALME-3M melanoma = test system: MALME-3M melanoma
KM12 colon = test system: KM12 colon
RXF 393 renal = test system: RXF 393 renal
SK-MEL-28 melanoma = test system: SK-MEL-28 melanoma
NCI-H522 lung = test system: NCI-H522 lung
ACHN renal = test system: ACHN renal
NCI-H23 lung = test system: NCI-H23 lung
HOP-92 NSCLC = test system: HOP-92 NSCLC
MDA-MB-468 breast = test system: MDA-MB-468 breast
RPMI-8226 leukemia = test system: RPMI-8226 leukemia
CCRF-CEM leukemia = test system: CCRF-CEM leukemia
UACC-257 melanoma = test system: UACC-257 melanoma
HOP-62 NSCLC = test system: HOP-62 NSCLC
786-0 renal = test system: 786-0 renal
OVCAR-4 ovarian = test system: OVCAR-4 ovarian
SW-620 colon = test system: SW-620 colon
SNB-19 CNS = test system: SNB-19 CNS
SK-OV-3 ovarian = test system: SK-OV-3 ovarian
HCT-116 colon = test system: HCT-116 colon
DU-145 prostate = test system: DU-145 prostate

`Cc1ccc2nc(COc3ccc(C(=O)NNC(=O)Nc4ccc(Cl)c(C(F)(F)F)c4)cc3)[nH]c2c1` was tested, and the GI50 (TK-10 renal) was 49.4 µM, the TGI (TK-10 renal) was > 100 µM and the GI50 (A498 renal) was 75.9 µM. The TGI (A498 renal) was > 100 µM, the GI50 (EKVX NSCLC) was 41.8 µM and the TGI (EKVX NSCLC) was > 100 µM. For the same compound, the GI50 (OVCAR-5 ovarian) was 26.6 µM, the TGI (OVCAR-5 ovarian) was > 100 µM and the GI50 (SK-MEL-2 melanoma) was 15.9 µM. The TGI (SK-MEL-2 melanoma) was 44.7 µM, the GI50 (SR leukemia) was 8.46 µM and the TGI (SR leukemia) was > 100 µM. The GI50 (SN12C renal) was 10.3 µM, the TGI (SN12C renal) was 50 µM and the GI50 (OVCAR-8 ovarian) was 5.54 µM. The TGI (OVCAR-8 ovarian) was 47.9 µM, the GI50 (SF-295 CNS) was 12.3 µM and the TGI (SF-295 CNS) was 25.9 µM. For the same compound, the GI50 (OVCAR-3 ovarian) was 24.2 µM, the TGI (OVCAR-3 ovarian) was > 100 µM and the GI50 (M14 melanoma) was 8.45 µM. The TGI (M14 melanoma) was > 100 µM, the GI50 (HT29 colon) was 19.5 µM and the TGI (HT29 colon) was 84.9 µM. The GI50 (MOLT-4 leukemia) was 21.6 µM, the TGI (MOLT-4 leukemia) was > 100 µM and the GI50 (HL-60(TB) leukemia) was > 100 µM. The TGI (HL-60(TB) leukemia) was > 100 µM, the GI50 (NCI-H226 lung) was 12.2 µM and the TGI (NCI-H226 lung) was 39.7 µM. It also gave a GI50 (MDA-MB-231 breast) of 6.31 µM, a TGI (MDA-MB-231 breast) of 26 µM and a GI50 (UACC-62 melanoma) of 5.31 µM. The TGI (UACC-62 melanoma) was 19.8 µM, the GI50 (SF-268 CNS) was 6.57 µM and the TGI (SF-268 CNS) was > 100 µM. The GI50 (K-562 leukemia) was 6.1 µM, the TGI (K-562 leukemia) was > 100 µM and the GI50 (HCT-15 colon) was 49.1 µM. The TGI (HCT-15 colon) was > 100 µM, the GI50 (MDA-MB-435) was 5.08 µM and the TGI (MDA-MB-435) was 36.5 µM. For the same compound, the GI50 (NCI-H460 lung) was 7.24 µM, the TGI (NCI-H460 lung) was 23.4 µM and the GI50 (SF-539 CNS) was 4 µM. The TGI (SF-539 CNS) was 20.1 µM, the GI50 (U251 CNS) was 4.13 µM and the TGI (U251 CNS) was 17.9 µM. The GI50 (CAKI-1 renal) was 21 µM, the TGI (CAKI-1 renal) was 64.2 µM and the GI50 (A549 NSCLC) was 7.96 µM. For the same compound, the TGI (A549 NSCLC) was 71.1 µM, the GI50 (UO-31 renal) was > 100 µM and the TGI (UO-31 renal) was > 100 µM. For the same compound, the GI50 (MCF7 breast) was 3.61 µM, the TGI (MCF7 breast) was 17.2 µM and the GI50 (IGROV1 ovarian) was 9.96 µM. For the same compound, the TGI (IGROV1 ovarian) was 27.2 µM, the GI50 (LOX IMVI melanoma) was 4.04 µM and the TGI (LOX IMVI melanoma) was 18.7 µM. For the same compound, the GI50 (HCC-2998 colon) was 28.8 µM, the TGI (HCC-2998 colon) was > 100 µM and the GI50 (SK-MEL-5 melanoma) was 11.8 µM. For the same compound, the TGI (SK-MEL-5 melanoma) was 28.4 µM, the GI50 (BT-549 breast) was 13 µM and the TGI (BT-549 breast) was 88.1 µM. It also gave a GI50 (PC-3 prostate) of 6.71 µM, a TGI (PC-3 prostate) of 36.2 µM and a GI50 (COLO 205 colon) of 21.7 µM. It also gave a TGI (COLO 205 colon) of 71.8 µM, a GI50 (HS 578T breast) of 2.98 µM and a TGI (HS 578T breast) of 53.9 µM. For the same compound, the GI50 (MALME-3M melanoma) was 2.06 µM, the TGI (MALME-3M melanoma) was 5.06 µM and the GI50 (KM12 colon) was 29.5 µM. For the same compound, the TGI (KM12 colon) was > 100 µM, the GI50 (RXF 393 renal) was 6.32 µM and the TGI (RXF 393 renal) was 22 µM. The GI50 (SK-MEL-28 melanoma) was 2.94 µM, the TGI (SK-MEL-28 melanoma) was 9.25 µM and the GI50 (NCI-H522 lung) was 13.8 µM. For the same compound, the TGI (NCI-H522 lung) was 39.7 µM, the GI50 (ACHN renal) was 27.4 µM and the TGI (ACHN renal) was > 100 µM. It also gave a GI50 (NCI-H23 lung) of 10.8 µM, a TGI (NCI-H23 lung) of 29.7 µM and a GI50 (HOP-92 NSCLC) of 5.38 µM. It also gave a TGI (HOP-92 NSCLC) of 24 µM, a GI50 (MDA-MB-468 breast) of 2.77 µM and a TGI (MDA-MB-468 breast) of 7.77 µM. For the same compound, the GI50 (RPMI-8226 leukemia) was 49.8 µM, the TGI (RPMI-8226 leukemia) was > 100 µM and the GI50 (CCRF-CEM leukemia) was 51.2 µM. The TGI (CCRF-CEM leukemia) was > 100 µM, the GI50 (UACC-257 melanoma) was 5.11 µM and the TGI (UACC-257 melanoma) was 58 µM. For the same compound, the GI50 (HOP-62 NSCLC) was 5.68 µM, the TGI (HOP-62 NSCLC) was 21.6 µM and the GI50 (786-0 renal) was 14.6 µM. For the same compound, the TGI (786-0 renal) was 41.6 µM, the GI50 (OVCAR-4 ovarian) was 18 µM and the TGI (OVCAR-4 ovarian) was 66.8 µM. The GI50 (SW-620 colon) was 10.7 µM, the TGI (SW-620 colon) was 36.9 µM and the GI50 (SNB-19 CNS) was 5.59 µM. For the same compound, the TGI (SNB-19 CNS) was 19.9 µM, the GI50 (SK-OV-3 ovarian) was 21.2 µM and the TGI (SK-OV-3 ovarian) was 54.1 µM. For the same compound, the GI50 (HCT-116 colon) was 45.1 µM, the TGI (HCT-116 colon) was > 100 µM and the GI50 (DU-145 prostate) was 30.4 µM. The TGI (DU-145 prostate) was > 100 µM.
